Source: patent US20030008015A1, “Polymer controlled delivery of a therapeutic agent” (priority 2000, published 2003)

What was measured:
[1] = test system: BBN-induced bladder cancer; test: Antitumor activity on BBN-induced bladder cancer: survival and body weight; format: in vivo; details: BBN mice
Method: (§1) Bladder cancer was induced in female Balb-c mice (8 weeks old) with the carcinogen BBN that was given as a 0.05% solution in the drinking water during 4 weeks. Mice were then treated intravesically (50 μL) with free paclitaxel ([…]) in Tween 80 5%), loaded particles (100 μg) or unloaded particle suspensions. Schedule of administration was the following: mice received the treatment every week during 4 weeks or every other week during 4 weeks. Body weights were recorded every week for all the animals. One week after the last instillation, all the animals were killed. Bladders were removed, weighed and fixed in paraformaldehyde 10% overnight then embedded in paraffin and sectioned.
The anti-cancer activity of paclitaxel encapsulated in microparticles of the invention was assayed against bladder cancer following intravesical instillation. Experimental bladder cancer was induced in female Balb/c mice with BBN, a carcinogenic compound that was added to the drinking water 4 weeks before starting the treatment we compared the same dose (100 μg) of free paclitaxel, encapsulated paclitaxel and non-loaded particles as a control (12 animals per group). Mice received the treatment either once a week or every other week for 4 weeks and number of surviving mice as well as body weight of mice were recorded every week. […]

[2] = test system: BBN-induced bladder cancer; test: Histologic evaluation and BrdU proliferation index of bladder sections of BBN-mice; format: in vivo; details: for Dysplasia (No) / HGTCC (No): number of animals; for CIS (No): number of animals with carcinoma in situ
Method: as §1
One week after the last instillation, all the animals were sacrificed and histologic evaluation was performed on haematoxilin and eosin stained sections (table 1). […] In the group treated with free paclitaxel once a week or every other week, CS was found in 5 cases (71°/b) and 7 cases (78%), respectively. On the contrary, no animal of 7 (0%) in the group treated with encapsulated paclitaxel once a week had CIS. Only 2 animals of 9 (22%) treated with particles every other week had CIS. In the groups treated with the paclitaxel, the urothelium was focally or predominantly denuded.
Proliferation index was calculated on these sections using the BrdU incroporation into proliferative cells. BrdU staining was localized in the nucleus with a fine granularity. Nuclei were considered BrdU positve if any nuclear staining was observed. The control group presented a proliferative index of 30% compared to the proliferative index of 10% in a normal urothelium. In all other groups, there was a high proliferative index, from about 35% in groups receiving encapsulated paclitaxel to 65% in groups receiving free paclitaxel.

MBT-2 cells [3] = test: MBT-2 cell proliferation assay (MTS tetrazolium); format: cell-based; details: 3 days, medium with free or extracted paclitaxel replaced every day, 2.9×10^−6 M to 2.9×10^−9 M or serial dilutions
Method: MBT-2 cells in culture flasks were maintained in Dulbecco's Modified Eagles Medium, 10% fetal calf serum, 100 μg/mL penicillin and 100 μg/mL streptomycin at 37° C. in an atmosphere of 5% CO2.
For proliferation assay experiments, cells were harvested with Trypsin-EDTA and seeded (3,000 cells) on an uncoated 96-well plate (Falcon). A standard curve was established by using paclitaxel solutions that were prepared by first dissolving paclitaxel in dimethylsulfoxide (DMSO), then dilution with culture medium. Final concentration of DMSO was 0.75%. After 1 day, the culture medium was replaced by medium containing free paclitaxel, with concentrations ranging from 2.9×10^−6 M to 2.9×10^−9 M or paclitaxel extracted from a paclitaxel-loaded microparticle, with serial dilutions. […] After 3 days, cell proliferation was measured by a tetrazolium-based assay (CellTiter96, Promega). […] Formazan production, related to enzymatic cell activity, was determined at 490 rim (Biorad plate reader Model 550). Results are expressed as a percentage of growth inhibition compared to cells incubated in the same conditions with medium. Paclitaxel encapsulation was then calculated from the standard curve of growth inhibition of free paxlitaxel.
Paclitaxel-loaded microparticle activity on MBT-2 cells was also determined with no extraction process. […] After 3 days, cell proliferation was measured as described above.

MBT-2 cells [4] = test: Observation of MBT-2 cells after incubation with free paclitaxel or particles (confocal microscope); format: cell-based; details: 4.4×10^−5 M paclitaxel, observed on day 4
Method: Cells were also observed after incubation with free paclitaxel or particles. Cells were seeded on chambered cover-glasses (Labtek). After 1 day, free paclitaxel (4.4×10^−5 M) or particles (same concentration of paclitaxel) were added. Medium was replaced every day with free paclitaxel or medium only in the case of the particles. On day 4, cells were washed, fixed during 30 minutes with paraformaldehyde (2%) then observed with a confocal microscope (Zweiss Axiovert 100) for localization of particles.

[5] = 100 μg every other week for 4 weeks

CC(=O)O[C@H]1C(=O)[C@@]2(C)[C@H]([C@H](OC(=O)c3ccccc3)[C@]3(O)C[C@H](OC(=O)[C@H](O)[C@@H](NC(=O)c4ccccc4)c4ccccc4)C(C)=C1C3(C)C)[C@]1(OC(C)=O)CO[C@@H]1C[C@@H]2O [Free paclitaxel, Paclitaxel]
survival rate ([1]; 100 μg intravesically every other week for 4 weeks): 82% | survival rate ([1]; 100 μg intravesically once a week for 4 weeks): 82% | CIS (%) [2, 5]: (78%) | Proliferative Index (%) ([2]; 100 μg every other week for 4 weeks, BrdU): 61% | CIS (%) ([2]; 100 μg every other week for 4 weeks, listed as free paclitaxel): 78% | Dysplasia (No) [2, 5]: 1 | HGTCC (No) [2, 5]: 1 | CIS (No) [2, 5]: 7 | CIS (%) ([2]; 100 μg once a week for 4 weeks): (71%) | Proliferative Index (%) ([2]; 100 μg once a week for 4 weeks, BrdU): 65% | CIS (%) ([2]; 100 μg once a week for 4 weeks, listed as free paclitaxel): 71% | Dysplasia (No) ([2]; 100 μg once a week for 4 weeks): 0 | HGTCC (No) ([2]; 100 μg once a week for 4 weeks): 1 | CIS (No) ([2]; 100 μg once a week for 4 weeks): 5 | effect on the incidence of CIS ([2]; 100 μg, BBN induced bladder cancer): almost no effect | proliferative index ([2]; BrdU, groups without stated schedule): 65% | MBT-2 cell proliferation (MBT-2 cells [3]): decreased with an increased concentration | shape of the cells (MBT-2 cells [4]): modification of the shape of the cells was observed

CC(=O)O[C@H]1C(=O)[C@@]2(C)[C@H]([C@H](OC(=O)c3ccccc3)[C@]3(O)C[C@H](OC(=O)[C@H](O)[C@@H](NC(=O)c4ccccc4)c4ccccc4)C(C)=C1C3(C)C)[C@]1(OC(C)=O)CO[C@@H]1C[C@@H]2O [paclitaxel extracted]
MBT-2 cell proliferation (MBT-2 cells [3]): the same trend was observed
